{"source": "ChEMBL document CHEMBL6114978", "about": "“Rational design and synthesis of pyrazole derivatives as potential SARS-CoV-2 Mpro inhibitors: An integrated approach merging combinatorial chemistry, molecular docking, and deep learning” (Bioorg Med Chem, 2025)", "set-up_in_all_cases": "species or system Severe acute respiratory syndrome-related coronavirus", "key": {"[1]": {"assay": "Inhibition of SARS-CoV Main protease assessed as inhibition constant"}, "[2]": {"assay": "Inhibition of His-tagged SARS-CoV 3CLpro using Abz-SVTLQSG-Tyr(NO2)R as substrate by fluorometric assay"}, "[3]": {"assay": "Inhibition of SARS-CoV Main protease"}}, "data": [{"smiles": "Cc1cc(C(=O)N[C@@H](C)C(=O)N[C@H](C(=O)N[C@@H](CC(C)C)C(=O)N[C@H](/C=C/C(=O)OCc2ccccc2)C[C@@H]2CCNC2=O)C(C)(C)C)no1", "values": [{"measurement": "Ki", "setting": "[1]", "value": 3300, "unit": "nM"}]}, {"smiles": "CC(=O)N[C@H](CN[C@H](C(=O)N[C@@H](CC(C)C)C(=O)N[C@@H](C[C@@H]1CCNC1=O)C(=O)Cn1[nH]c(=O)c2c([N+](=O)[O-])cccc2c1=O)[C@@H](C)OCc1ccccc1)C(C)C", "values": [{"measurement": "IC50", "setting": "[2]", "value": 600, "unit": "nM"}]}, {"smiles": "CC(C)(C)c1ccc(N(C(=O)c2cnc[nH]2)[C@@H](C(=O)NC2CCCCC2)c2cccnc2)cc1", "values": [{"measurement": "IC50", "setting": "[3]", "value": 1600, "unit": "nM"}]}]}
